Source: patent US20170313674A1, “BENZYLHYDROXIDE DERIVATIVES, PREPARATION THEREOF AND THERAPEUTIC USE THEREOF” (SANOFI, priority 2014, published 2017)
Where two headings read alike, the source gives them in different places.

Key:
HIF-1a = test: Western blot model: HIF1-a stabilization in Hep3b cells under hypoxia; format: cell-based; details: hypoxia 1% O2, 6 hours; for Western Blot (range of decrease of HIF1-a stabilization): class symbol
Experimental: Since it was sought to determine the efficacy of the compounds to inhibit HIF1a stabilization under hypoxia, the compounds according to the invention underwent biochemical studies in order to determine their capacity to decrease HIF stabilization in Hep3b cells under hypoxia (western blot model).
Hep3B cells are seeded at a rate of 300000 cells per well in 6-wells culture plate in 2 ml of MEM supplemented with glutamin (2 mM) and 10% FCS (foetal calf serum) and incubated at 37° C. in the presence of 5% CO2. The next day, the cells are placed in contact with the compound and an incubation under hypoxia at 1% O2 is carried out at 37° C. in 95% humidity and 5% CO2 in a sealed anaerobic workstation (Hypoxystation H35-Don Whitley—AES Chemunex) during 6 hours.
Cells were washed (PBS) and lysed in SDS sample buffer. Proteins (25 μg) were separated on 4-12% Bis-Tris gels and transferred onto polyvinylidene difluoride membranes (Millipore). Membranes were blotted with a mouse monoclonal antibody to HIF-1a (BD transduction) and a mouse monoclonal anti-βactin (Sigma). Immunoreactive bands were detected with a horse radish peroxydase (HRP) anti-mouse antibody (Sigma) by enhanced chemiluminescence (Promega).
The inhibitory activity of the compounds for their capacity to decrease HIF1-a stabilization in Hep3b under hypoxia is expressed as range of percentage relative to control with: […]

[1] = test system: mitochondrial ATP production on non-small cell lung carcinoma cell lines NCI-H460; test: Mitochondrial ATP analysis (Cell Titer Glo) in NCI-H460 cells; format: cell-based; details: 1-hour incubation, with sodium iodoacetate (100 μM), concentration inhibiting 50% of mitochondrial ATP production, read-out: IC50 (mito ATP)
Experimental: In order to evaluate the inhibitory activity of the all compounds, an in vitro assay was developed which read out is directly linked to mitochondrial complex 1 inhibition. Since mitochondrial complex 1 contributes to the formation of membrane potential coupled to the mitochondrial ATP synthesis, complex 1 inhibition directly leads in cells to the inhibition of mitochondrial ATP production. Cellular ATP contents were measured in presence of either glycolysis inhibitor (sodium iodocetate) and/or mitochondrial inhibitors (F0F1-ATPase inhibitor: oligomycin or mitochondrial uncoupler: FCCP) to determine the ATP production part relying either on glycolytic or on mitochondrial metabolism.
Mitochondrial ATP Analysis
The compounds of the invention were evaluated for their ability to inhibit mitochondrial
ATP was measured using the Promega Cell Titer Glo kit and protocol. In summary, 1,000 cells were plated in 40 μL in a 384 well plate. 24 hours later, medium was replaced by 20 μl culture medium in presence of compounds: cells were treated in replicates of five with control (PBS), oligomycin A (10 μg/ml), FCCP (30 μM), or the compounds of the invention in dose effect both alone or in combination with sodium iodoacetate (100 μM). Following a 1-hour incubation, 20 μL of CellTtiter-glo™ reaction mix were added to each well for a final volume of 40 μL. Plates were then analyzed for luminescence with a Perkin Elmer EnVision. By comparing the different conditions, global ATP and percentages of both glycolytic and mitochondrial ATP were determined.
The mitochondrial ATP production was calculated as the remaining ATP under iodoacetate treatment minus basal ATP (ATP content under iodoacetate and oligomycin treatment). Inhibitory activity of the compounds on mitochondrial ATP in NCI-H460 cells is expressed as the concentration needed to inhibit 50% of mitochondrial ATP production (IC50, M).

Row | SMILES | IC50 ([1]; Homo sapiens, NCI-H460, 1 h) [µM] | IC50 [1] [µM] | Western Blot (decrease of HIF1-a stabilization, percentage relative to control) (HIF-1a) [%] | Western Blot (range of decrease of HIF1-a stabilization) (HIF-1a)
1 | COc1ccc(C(O)C(C)(C)Oc2ccc(-c3nc(-c4ccc(OC(C)(C)C(O)c5ccc(OC)c(OC)c5)cc4)c(C)o3)cc2)cc1OC (single isomer, unassigned) [Compound I-3, 1-(3,4-dimethoxyphenyl)-2-[4-[2-[4-[2-(3,4-dimethoxyphenyl)-2-hydroxy-1,1-dimethyl-ethoxy]phenyl]-5-methyl-oxazol-4-yl]phenoxy]-2-methyl-propan-1-ol] | 0.00885 |  | 70 | *** (*** represents a decrease of HIF-a stabilization higher than 70%)
2 | COc1ccc(C(O)C(C)(C)Oc2ccc(-c3nc(-c4ccc(OC(C)(C)C(O)c5ccc(OC)c(OC)c5)cc4)c(C)s3)cc2)cc1OC (single isomer, unassigned) [Compound I-9, 1-(3,4-dimethoxyphenyl)-2-[4-[2-[4-[2-(3,4-dimethoxyphenyl)-2-hydroxy-1,1-dimethyl-ethoxy]phenyl]-5-methyl-thiazol-4-yl]phenoxy]-2-methyl-propan-1-ol] | 0.00386 |  | 58.5 | ** (** represents a decrease of HIF-a stabilization between 50 to 70%)
3 | COc1ccc(C(O)COc2ccc(-c3nc(-c4ccc(OCC(O)c5ccc(OC)c(OC)c5)cc4)c(C)s3)cc2)cc1OC (single isomer, unassigned) [Compound I-11, 1-(3,4-dimethoxyphenyl)-2-[4-[2-[4-[2-(3,4-dimethoxyphenyl)-2-hydroxy-ethoxy]phenyl]-5-methyl-thiazol-4-yl]phenoxy]ethanol] |  | 0.557 | 65 | ** (** represents a decrease of HIF-a stabilization between 50 to 70%)
4 | COc1ccc(C(O)COc2ccc(-c3coc(-c4ccc(OCC(O)c5ccc(OC)c(OC)c5)cc4)n3)cc2)cc1OC (single isomer, unassigned) [Compound I-14, 1-(3,4-dimethoxyphenyl)-2-[4-[2-[4-[2-(3,4-dimethoxyphenyl)-2-hydroxy-ethoxy]phenyl]oxazol-4-yl]phenoxy]ethanol] |  | 0.679 | 59 | ** (** represents a decrease of HIF-a stabilization between 50 to 70%)
5 | COc1ccc(C(O)C(C)(C)Oc2ccc(-c3coc(-c4ccc(OC(C)(C)C(O)c5ccc(OC)c(OC)c5)cc4)n3)cc2)cc1OC (single isomer, unassigned) [Compound I-19, 1-(3,4-dimethoxyphenyl)-2-[4-[2-[4-[2-(3,4-dimethoxyphenyl)-2-hydroxy-1,1-dimethyl-ethoxy]phenyl]oxazol-4-yl]phenoxy]-2-methyl-propan-1-ol] |  | 0.245 | 56 | ** (** represents a decrease of HIF-a stabilization between 50 to 70%)
6 | COc1cc(C(O)COc2ccc(-c3coc(-c4ccc(OCC(O)c5cc(OC)c(OC)c(OC)c5)cc4)n3)cc2)cc(OC)c1OC (single isomer, unassigned) [Compound I-21, 2-[4-[2-[4-[2-hydroxy-2-(3,4,5-trimethoxyphenyl)ethoxy]phenyl]oxazol-4-yl]phenoxy]-1-(3,4,5-trimethoxyphenyl)ethanol] |  | 2.65 | 52 | ** (** represents a decrease of HIF-a stabilization between 50 to 70%)
7 | COc1cc(C(O)COc2ccc(-c3coc(-c4ccc(OCC(O)c5cc(OC)c(OC)c(OC)c5)cc4)n3)cc2)cc(OC)c1OC (single isomer, unassigned) [Compound I-22, 2-[4-[2-[4-[2-hydroxy-2-(3,4,5-trimethoxyphenyl)ethoxy]phenyl]oxazol-4-yl]phenoxy]-1-(3,4,5-trimethoxyphenyl)ethanol] |  | 1.28 | 57 | ** (** represents a decrease of HIF-a stabilization between 50 to 70%)
8 | COc1ccc(C(O)COc2ccc(-c3csc(-c4ccc(OCC(O)c5ccc(OC)c(OC)c5)cc4)n3)cc2)cc1OC (single isomer, unassigned) [Compound I-24, 1-(3,4-dimethoxyphenyl)-2-[4-[2-[4-[2-(3,4-dimethoxyphenyl)-2-hydroxy-ethoxy]phenyl]thiazol-4-yl]phenoxy]ethanol] |  | 0.254 | 49 | * (* represents a decrease of HIF-a stabilization between 30 to 50%)

More lines, in order of falling IC50 [1], values ahead:

Row | IC50 ([1]; Homo sapiens, NCI-H460, 1 h) [µM] | IC50 [1] [µM] | SMILES | Western Blot (decrease of HIF1-a stabilization, percentage relative to control) (HIF-1a) [%] | Western Blot (range of decrease of HIF1-a stabilization) (HIF-1a)
9 |  | 0.146 | COc1ccc(C(O)COc2ccc(-c3nc(-c4ccc(OCC(O)c5ccc(OC)c(OC)c5)cc4)c(C)s3)cc2)cc1OC (single isomer, unassigned) [Compound I-10, 1-(3,4-dimethoxyphenyl)-2-[4-[2-[4-[2-(3,4-dimethoxyphenyl)-2-hydroxy-ethoxy]phenyl]-5-methyl-thiazol-4-yl]phenoxy]ethanol] | 62 | ** (** represents a decrease of HIF-a stabilization between 50 to 70%)
10 |  | 0.069 | COc1ccc(C(O)COc2ccc(-c3coc(-c4ccc(OCC(O)c5ccc(OC)c(OC)c5)cc4)n3)cc2)cc1OC (single isomer, unassigned) [Compound I-13, 1-(3,4-dimethoxyphenyl)-2-[4-[2-[4-[2-(3,4-dimethoxyphenyl)-2-hydroxy-ethoxy]phenyl]oxazol-4-yl]phenoxy]ethanol] | 51 | ** (** represents a decrease of HIF-a stabilization between 50 to 70%)
11 |  | 0.0628 | COc1ccc(C(O)C(C)(C)Oc2ccc(-c3coc(-c4ccc(OC(C)(C)C(O)c5ccc(OC)c(OC)c5)cc4)n3)cc2)cc1OC (single isomer, unassigned) [Compound I-18, 1-(3,4-dimethoxyphenyl)-2-[4-[2-[4-[2-(3,4-dimethoxyphenyl)-2-hydroxy-1,1-dimethyl-ethoxy]phenyl]oxazol-4-yl]phenoxy]-2-methyl-propan-1-ol] | 71 | *** (*** represents a decrease of HIF-a stabilization higher than 70%)
12 |  | 0.012 | COc1ccc(C(O)C(C)(C)Oc2ccc(-c3nc(-c4ccc(OC(C)(C)C(O)c5ccc(OC)c(OC)c5)cc4)c(C)o3)cc2)cc1OC (single isomer, unassigned) [Compound I-4, 1-(3,4-dimethoxyphenyl)-2-[4-[2-[4-[2-(3,4-dimethoxyphenyl)-2-hydroxy-1,1-dimethyl-ethoxy]phenyl]-5-methyl-oxazol-4-yl]phenoxy]-2-methyl-propan-1-ol] | 72 | *** (*** represents a decrease of HIF-a stabilization higher than 70%)
13 |  | 0.00206 | COc1ccc(C(O)C(C)(C)Oc2ccc(-c3nc(-c4ccc(OC(C)(C)C(O)c5ccc(OC)c(OC)c5)cc4)c(C)s3)cc2)cc1OC (single isomer, unassigned) [Compound I-8, 1-(3,4-dimethoxyphenyl)-2-[4-[2-[4-[2-(3,4-dimethoxyphenyl)-2-hydroxy-1,1-dimethyl-ethoxy]phenyl]-5-methyl-thiazol-4-yl]phenoxy]-2-methyl-propan-1-ol] | 47 | * (* represents a decrease of HIF-a stabilization between 30 to 50%)
